Results on 7 molecules are retold here after PubChem BioAssay (NCI).

Structures are written as SMILES.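 Grown in 96-well plates, cells were treated for 48 hours with each compound at five concentrations. Insufficient inhibition: endpoint recorded as highest concentration tested. The concentration for full growth arrest is given as TGI.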

Test systems include A549 NSCLC; CAKI-1 renal; HCC-2998 colon; HT29 colon; IGROV1 ovarian; K-562 leukemia; MALME-3M melanoma; MCF7 breast; MDA-N; MOLT-4 leukemia; NCI/ADR-RES ovarian; RPMI-8226 leukemia; SF-268 CNS; SF-539 CNS; SW-620 colon; T-47D breast; TK-10 renal; UACC-257 melanoma; SK-MEL-28 melanoma.
Holding throughout (test): growth of human tumour cells (NCI), 48 h

As to `CCOC(=O)/C=C/[C@@H](CC)O[Si](C(C)C)(C(C)C)C(C)C`, the TGI with A549 NSCLC, with CAKI-1 renal, in the experiment on HCC-2998 colon, in the experiment on HT29 colon, in the experiment on IGROV1 ovarian and in the experiment with K-562 leukemia was > 100 µM throughout. For the same molecule, the TGI with MALME-3M melanoma is > 100 µM; in the experiment on MCF7 breast, > 100 µM; with MDA-N, > 100 µM; in the experiment on MOLT-4 leukemia it was > 100 µM; in the experiment on NCI/ADR-RES ovarian it was > 100 µM; with RPMI-8226 leukemia, 94.6 µM. Further, the TGI in the experiment with SF-268 CNS, in the experiment on SF-539 CNS, with SW-620 colon, with T-47D breast, in the experiment on TK-10 renal and with UACC-257 melanoma was > 100 µM in each case.
In the case of `CN1CCN([C@H]2C[C@H]3[C@@H]4CC=C5C[C@@H](O)CC[C@]5(C)[C@H]4CC[C@]3(C)[C@H]2O)CC1`, the TGI was > 100 µM with A549 NSCLC; > 100 µM with CAKI-1 renal; > 100 µM in the experiment on HCC-2998 colon; 28.6 µM with HT29 colon; > 100 µM in the experiment with IGROV1 ovarian; 39.7 µM in the experiment with K-562 leukemia. For the same molecule, the TGI is > 58.1 µM in the experiment with MALME-3M melanoma; > 63.2 µM in the experiment on MCF7 breast; 34.6 µM in the experiment with MDA-N; > 82.5 µM in the experiment with MOLT-4 leukemia; > 100 µM in the experiment on NCI/ADR-RES ovarian; 50.6 µM with RPMI-8226 leukemia. Besides, the TGI in the experiment with SF-268 CNS was > 59.4 µM; in the experiment on SF-539 CNS it was > 56.5 µM; in the experiment with SK-MEL-28 melanoma, > 57.3 µM; with SW-620 colon it was 49.7 µM; in the experiment on T-47D breast, > 77.8 µM; in the experiment on TK-10 renal it was > 100 µM. Besides, in the experiment on UACC-257 melanoma, the TGI is > 69.3 µM.
Consider `COC1CC(OC2C(C)OC(OC3C(C)OC(OC4C(C)OC(O[C@H]5CC[C@@]6(C)C(=CC[C@]7(O)[C@@H]6C[C@@H](O)[C@@]6(C)[C@]7(O)CC[C@@]6(O)C(C)=O)C5)CC4OC)CC3OC)CC2OC)OC(C)C1O` (some centres not stated), for which the TGI in the experiment with A549 NSCLC, in the experiment on CAKI-1 renal, with HCC-2998 colon, in the experiment with HT29 colon, in the experiment on IGROV1 ovarian and in the experiment on K-562 leukemia was > 12.5 µM each time. Moreover, the TGI in the experiment with MALME-3M melanoma, with MCF7 breast, in the experiment on MDA-N, in the experiment on MOLT-4 leukemia, with NCI/ADR-RES ovarian and with RPMI-8226 leukemia was > 12.5 µM in each case. The TGI in the experiment with SF-268 CNS, with SF-539 CNS, with SK-MEL-28 melanoma, with SW-620 colon, with T-47D breast and in the experiment with TK-10 renal was > 12.5 µM each time. In addition, the TGI with UACC-257 melanoma was > 12.5 µM.
Regarding `N#Cc1nc(-c2cccc(-c3nc(C#N)c(N)o3)n2)oc1N`, the TGI with A549 NSCLC, in the experiment with CAKI-1 renal, in the experiment on HCC-2998 colon, in the experiment with HT29 colon, with IGROV1 ovarian and with K-562 leukemia was > 100 µM throughout. The TGI in the experiment with MALME-3M melanoma, in the experiment with MCF7 breast, in the experiment with MDA-N, with MOLT-4 leukemia, in the experiment with NCI/ADR-RES ovarian and in the experiment with RPMI-8226 leukemia was > 100 µM in each case. Moreover, the TGI in the experiment on SF-268 CNS, in the experiment on SF-539 CNS, in the experiment with SK-MEL-28 melanoma, in the experiment with SW-620 colon, with T-47D breast and in the experiment with TK-10 renal was > 100 µM each time. Besides, the TGI with UACC-257 melanoma is > 100 µM.
On to `CCOC(=O)CCC(NC(=O)c1ccc(Nc2nc3ccccc3nc2C(=O)OCC)cc1)C(=O)OCC` (configuration not stated), for which the TGI with A549 NSCLC is 14.3 µM; with CAKI-1 renal, 14.4 µM; in the experiment with HCC-2998 colon it was > 100 µM; in the experiment with HT29 colon, > 89.7 µM; in the experiment on IGROV1 ovarian, 9.2 µM; in the experiment with K-562 leukemia it was > 100 µM. Moreover, the TGI in the experiment with MALME-3M melanoma was 26.3 µM; with MCF7 breast it was > 79 µM; with MDA-N it was > 100 µM; in the experiment on MOLT-4 leukemia it was > 100 µM; in the experiment with NCI/ADR-RES ovarian it was 27 µM; in the experiment with RPMI-8226 leukemia it was > 100 µM. The TGI with SF-268 CNS is 43.7 µM; in the experiment with SF-539 CNS it was 5.62 µM; with SK-MEL-28 melanoma it was > 100 µM; in the experiment with SW-620 colon it was 49.9 µM; with T-47D breast it was 7.06 µM; in the experiment on TK-10 renal, 6.43 µM. In addition, the TGI in the experiment on UACC-257 melanoma was > 100 µM.
In the case of `O=C(NCCCCCN1CCC2(CCCCC2)CC1)C(C1CCCCC1)C1CCCCC1`, the TGI in the experiment on A549 NSCLC was 16.7 µM; in the experiment on CAKI-1 renal, 11.6 µM; in the experiment with HCC-2998 colon, 2.57 µM; in the experiment with HT29 colon, 4.62 µM; in the experiment on IGROV1 ovarian it was 8.78 µM; in the experiment with K-562 leukemia it was 3.5 µM. Also, the TGI was 3.26 µM in the experiment with MALME-3M melanoma; 5.37 µM in the experiment on MCF7 breast; 3.51 µM with MDA-N; 4.87 µM in the experiment on MOLT-4 leukemia; 14.9 µM in the experiment with NCI/ADR-RES ovarian; 4.71 µM in the experiment on RPMI-8226 leukemia. In addition, the TGI in the experiment on SF-268 CNS was 12.5 µM; with SF-539 CNS it was 3.43 µM; in the experiment on SK-MEL-28 melanoma, 3.64 µM; with SW-620 colon it was 8.05 µM; in the experiment with T-47D breast it was 8.43 µM; in the experiment with TK-10 renal, 10.4 µM. In the experiment on UACC-257 melanoma, this molecule gave a TGI of 3.43 µM.
For `CC(=O)c1sc2[n+](c1C)C(=O)/C(=C\c1ccccc1Cl)S2`, the TGI is 43.6 µM with A549 NSCLC; 41 µM with CAKI-1 renal; 37.6 µM in the experiment on HCC-2998 colon; 39.2 µM with HT29 colon; 33.8 µM in the experiment on IGROV1 ovarian; 80.6 µM with K-562 leukemia. In addition, the TGI in the experiment with MALME-3M melanoma was 32.4 µM; with MCF7 breast it was 29.8 µM; in the experiment on MDA-N it was 44 µM; with MOLT-4 leukemia, > 100 µM; in the experiment with NCI/ADR-RES ovarian, 61.6 µM; in the experiment on RPMI-8226 leukemia, 49.3 µM. Besides, the TGI was found to be 64.5 µM in the experiment on SF-268 CNS; 44.7 µM with SF-539 CNS; 31.1 µM in the experiment with SK-MEL-28 melanoma; 31.1 µM with SW-620 colon; 36.2 µM in the experiment with T-47D breast; 57.3 µM with TK-10 renal. This molecule gave a TGI with UACC-257 melanoma of 42.3 µM.
